Test results from patent US8563730B2, “Pyrazole and fused pyrazole glucokinase activators” (Takeda San Diego, Inc., priority 2008, dated 2013).
pEC50: −log10 of the molar value. Structures can show the parent of a compound that is named as a salt. Where two headings read alike, the source gives them in different places.

Biological target: T1, GK (glucokinase, residues 12-465) (Homo sapiens, UniProt P35557)
T1 construct: I.D. No. 1 corresponds to residues 12-465 of glucokinase; made in house; host or cells: DH10b-T1r E. coli
T1 sequence (P35557 with tags, fused parts or gaps isoform P35557-2): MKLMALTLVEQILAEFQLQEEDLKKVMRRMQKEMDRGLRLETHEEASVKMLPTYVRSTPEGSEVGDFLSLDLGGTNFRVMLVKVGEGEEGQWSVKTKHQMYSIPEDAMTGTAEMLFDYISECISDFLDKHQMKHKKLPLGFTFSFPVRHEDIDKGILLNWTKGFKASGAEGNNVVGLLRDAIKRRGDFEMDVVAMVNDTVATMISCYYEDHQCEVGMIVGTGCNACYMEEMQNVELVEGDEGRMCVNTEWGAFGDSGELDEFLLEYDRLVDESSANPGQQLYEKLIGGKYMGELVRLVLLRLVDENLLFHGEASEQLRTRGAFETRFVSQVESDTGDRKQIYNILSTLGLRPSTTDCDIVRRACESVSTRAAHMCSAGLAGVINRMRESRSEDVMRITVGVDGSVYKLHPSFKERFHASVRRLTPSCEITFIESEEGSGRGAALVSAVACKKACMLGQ
Test: enzymatic glucokinase activity assay (ATP consumption, KinaseGlo luminescence)
Assay type: biochemical
Settings: 5 μM ATP, 5 mM Glucose, reported as bins; for pEC50: Kact = concentration that displays 50% of the maximal increase in GK activity, 60 min, room temperature, read-out: pKact
Excerpt: The activity of compounds as glucokinase activators may be assayed in vitro, in vivo or in a cell line. Provided below is an enzymatic glucokinase activity assay.
Purified glucokinase may be obtained as follows. […] SEQ.
The expression of recombinant glucokinase protein may be carried out by transformation and growth of DH10b-T1r E. coli cells incorporating the (pFLAG-CTC) plasmid in LB media. Protein expression can be induced in this system by the addition of IPTG to the culture medium.
Recombinant protein may be isolated from cellular extracts by passage over Sepharose Q Fast Flow resin (Pharmacia). This partially purified GK extract may then be further purified by a second passage over Poros HQ10 (Applied Biosystems). The purity of GK may be determined on denaturing SDS-PAGE gel. Purified GK may then be concentrated to a final concentration of 20.0 mg/ml. After flash freezing in liquid nitrogen, the proteins can be stored at −78° C. in a buffer containing 25 mM TRIS-HCl pH 7.6, 50 mM NaCl, and 0.5 mM TCEP.
The activation properties of compounds for GK may be determined using a black 384-well-plate format under the following reaction conditions: 25 mM Hepes pH 7.2, 25 mM NaCl, 10 mM MgCl2, 0.01% Brij35, 1 mM DTT, 5 μM ATP, 5 mM Glucose 2% DMSO. The amount of ATP consumed may be determined quantitatively by addition of equal volume of luciferase reagent (luciferase+beetle luciferin—KinaseGlo Luminescent Kinase Assay kit from Promega). The luminescence intensity may be measured by using the Analyst HT from LJL Biosystems.
The reaction mixture may then be incubated at room temperature for 60 min, and quenched and developed by addition of 10 μL of luciferase reagent. Luminescence intensities of the resulting reaction mixtures may be measured after a 10 min incubation at room temperature. The luminescence intensity may be measured by using the Analyst HT from LJL Biosystems.
pKact and % ACTmax values may be calculated by non-linear curve fitting of the compound concentrations and luminescence intensities to a standard inhibition/activation equation.

[1] = read-out: % ACTmax, calculated maximal gain in GK enzyme activity at a saturating concentration of the compound
[2] = calculated maximal gain in GK enzyme activity at a saturating concentration of the compound, read-out: % ACTmax

SMILES | pEC50 | Emax [1] | Emax [2] | % ACTmax (calculated maximal gain in GK enzyme activity at a saturating concentration of the compound)
Cn1ccc(NC(=O)[C@H](CC2CCOCC2)n2ncc3c(S(=O)(=O)C4CC4)cccc32)n1 [Compound 119] | 5.90 to 6.40 | 90 to 100% |  | 
O=C(Nc1ncc(F)s1)[C@H](CC1CCOCC1)n1cc(S(=O)(=O)C2CC2)cn1 [Compound 32, (S)-2-(4-(cyclopropylsulfonyl)-1H-pyrazol-1-yl)-N-(5-fluorothiazol-2-yl)-3-(tetrahydro-2H-pyran-4-yl)propanamide] | 4.90 to 5.40 |  | 101 to 105% | 
O=C(Nc1ncc(Cl)s1)C(CC1CCOCC1)n1cc(NS(=O)(=O)C2CC2)cn1 (stereo not shown) [Compound 9, N-(5-chlorothiazol-2-yl)-2-(4-(cyclopropanesulfonamido)-1H-pyrazol-1-yl)-3-(tetrahydro-2H-pyran-4-yl)propanamide] | 4.90 to 5.40 | ≤ 90% |  | 
O=C(Nc1ncc(Cl)s1)[C@@H](CC1CCOCC1)n1cc(S(=O)(=O)C2CC2)cn1 [Compound 40, (R)-N-(5-chlorothiazol-2-yl)-2-(4-(cyclopropylsulfonyl)-1H-pyrazol-1-yl)-3-(tetrahydro-2H-pyran-4-yl)propanamide] | ≤ 4.80 |  | ≤ 90% | 
Cn1ccc(NC(=O)[C@@H](CC2CCOCC2)n2ncc3c(S(=O)(=O)C4CC4)ccnc32)n1 [Compound 99, (R)-2-(4-(cyclopropylsulfonyl)-1H-pyrazolo[3,4-b]pyridin-1-yl)-N-(1-methyl-1H-pyrazol-3-yl)-3-(tetrahydro-2H-pyran-4-yl)propanamide] | 4.90 to 5.40 |  | 90 to 100% | 
O=C(Nc1ncc(Cl)s1)C(CC1CCOCC1)n1ncc2cc(S(=O)(=O)C3CC3)ccc21 (racemic) [Compound 10, N-(5-chlorothiazol-2-yl)-2-(5-(cyclopropylsulfonyl)-1H-indazol-1-yl)-3-(tetrahydro-2H-pyran-4-yl)propanamide] | 5.50 to 5.80 |  | ≥ 111% | 
CS(=O)(=O)c1cccc2c1cnn2C(CC1CCOCC1)C(=O)Nc1ncc(F)s1 (stereo not shown) [Compound 41, N-(5-fluorothiazol-2-yl)-2-(4-(methylsulfonyl)-1H-indazole-1-yl)-3-(tetrahydro-2H-pyran-4-yl)propanamide] | 5.50 to 5.80 |  | ≤ 90% | 
O=C(Nc1cnccn1)C(CC1CCOCC1)n1ncc2c(S(=O)(=O)C3CC3)cncc21 (stereo not shown) [20 (TFA Salt), 2-(4-(cyclopropylsulfonyl)-1H-pyrazolo[3,4-c]pyridin-1-yl)-N-(pyrazin-2-yl)-3-(tetrahydro-2H-pyran-4-yl)propanamide] | 5.50 to 5.80 |  |  | 106-110%
O=C(Nc1ncc(Cl)s1)[C@@H](CC1CCOCC1)n1ncc2cc(S(=O)(=O)C3CC3)ccc21 [Compound 47, (R)-N-(5-chlorothiazol-2-yl)-2-(5-(cyclopropylsulfonyl)-1H-indazol-1-yl)-3-(tetrahydro-2H-pyran-4-yl)propanamide] | 4.90 to 5.40 |  | ≥ 111% | 
Cn1ccc(NC(=O)[C@H](CC2CCOCC2)n2ncc3c(S(=O)(=O)C4CC4)cncc32)n1 [Compound 159, (S)-2-(4-(cyclopropylsulfonyl)-1H-pyrazolo[3,4-c]pyridin-1-yl)-N-(1-methyl-1H-pyrazol-3-yl)-3-(tetrahydro-2H-pyran-4-yl)propanamide] | 5.50 to 5.80 |  | 101 to 105% | 
O=C(Nc1ncc(Cl)s1)C(CC1CCOCC1)n1cc(S(=O)(=O)C2CC2)cn1 (stereo not shown) [Compound 4, N-(5-chlorothiazol-2-yl)-2-(4-(cyclopropylsulfonyl)-1H-pyrazol-1-yl)-3-(tetrahydro-2H-pyran-4-yl)propanamide] | 4.90 to 5.40 | 101 to 105% |  | 
N#Cc1ccc(NC(=O)C(CC2CCOCC2)n2ncc3c(S(=O)(=O)C4CC4)cccc32)nc1 (stereo not shown) [Compound 135, N-(5-cyanopyridin-2-yl)-2-(4-(cyclopropylsulfonyl)-1H-indazol-1-yl)-3-(tetrahydro-2H-pyran-4-yl)propanamide] | 5.90 to 6.40 |  | 106 to 110% | 
COc1ccc2c(cnn2[C@H](CC2CCOCC2)C(=O)Nc2ccn(C)n2)c1S(=O)(=O)C1CC1 [Compound 110, (R)-2-(4-(cyclopropylsulfonyl)-5-methoxy-1H-indazol-1-yl)-N-(1-methyl-1H-pyrazol-3-yl)-3-(tetrahydro-2H-pyran-4-yl)propanamide] | ≤ 4.80 |  | 106 to 110% | 
O=C1CC[C@H](C[C@H](C(=O)Nc2ncc(F)s2)n2cc(S(=O)(=O)C3CC3)cn2)C1 [Compound 56, (R)-2-(4-(cyclopropylsulfonyl)-1H-pyrazol-1-yl)-N-(5-fluorothiazol-2-yl)-3-((R)-3-oxocyclopentyl)propanamide] | ≤ 4.80 |  | ≤ 90% | 
Cn1ccc(NC(=O)C(CC2CCOCC2)n2ncc3c(S(=O)(=O)C4CC4)cc(OC(F)F)cc32)n1 (stereo not shown) [Compound 12, 2-(4-(cyclopropylsulfonyl)-6-(difluoromethoxy)-1H-indazol-1-yl)-N-(1-methyl-1H-pyrazol-3-yl)-3-(tetrahydro-2H-pyran-4-yl)propanamide] | 5.50 to 5.80 |  | ≤ 90% | 
Cn1ccc(NC(=O)C(CC2CCOCC2)n2ncc3c(S(=O)(=O)C4CC4)cc(C#N)cc32)n1 (stereo not shown) [Compound 19, 2-(6-cyano-4-(cyclopropylsulfonyl)-1H-indazol-1-yl)-N-(1-methyl-1H-pyrazol-3-yl)-3-(tetrahydro-2H-pyran-4-yl) propanamide] | ≥ 6.50 |  | ≤ 90% | 
CC(C)(C)S(=O)(=O)c1cnn([C@H](CC2CCOCC2)C(=O)Nc2ncc(F)s2)c1 [Compound 52, (R)-2-(4-(tert-butylsulfonyl)-1H-pyrazol-1-yl)-N-(5-fluorothiazol-2-yl)-3-(tetrahydro-2H-pyran-4-yl)propanamide] | ≤ 4.80 |  | 90 to 100% | 
Cn1ccc(NC(=O)[C@@H](CC2CCOCC2)n2ncc3c(S(=O)(=O)C4CC4)cc(C#N)cc32)n1 [Compound 106, (R)-2-(6-cyano-4-(cyclopropylsulfonyl)-1H-indazol-1-yl)-N-(1-methyl-1H-pyrazol-3-yl)-3-(tetrahydro-2H-pyran-4-yl)propanamide] | ≤ 4.80 |  | 90 to 100% | 
O=C(Nc1ncc(F)s1)[C@H](CC1CCCC1)n1cc(S(=O)(=O)C2CC2)cn1 [Compound 36, (S)-3-cyclopentyl-2-(4-(cyclopropylsulfonyl)-1H-pyrazol-1-yl)-N-(5-fluorothiazol-2-yl)propanamide] | 5.50 to 5.80 |  | ≥ 111% | 
O=C(Nc1ncc(F)s1)C(CC1CCCC1)n1ncc2c(S(=O)(=O)C3CC3)cccc21 (stereo not shown) [Compound 62, 3-cyclopentyl-2-(4-(cyclopropylsulfonyl)-1H-indazol-1-yl)-N-(5-fluorothiazol-2-yl)propanamide] | 5.90 to 6.40 |  | 90 to 100% | 
O=C1CC[C@H](C[C@H](C(=O)Nc2ncc(F)s2)n2ncc3c(S(=O)(=O)C4CC4)cc(Cl)cc32)C1 [Compound 78, (R)-2-(6-chloro-4-(cyclopropylsulfonyl)-1H-indazol-1-yl)-N-(5-fluorothiazol-2-yl)-3-((R)-3-oxocyclopentyl)propanamide] | 5.50 to 5.80 |  | 90 to 100% | 
COc1ccc2c(cnn2[C@@H](CC2CCOCC2)C(=O)Nc2cnccn2)c1S(=O)(=O)C1CC1 [Compound 94, (S)-2-(4-(cyclopropylsulfonyl)-5-methoxy-1H-indazol-1-yl)-N-(pyrazin-2-yl)-3-(tetrahydro-2H-pyran-4-yl)propanamide] | ≥ 6.50 |  | 90 to 100% | 
COc1cc(S(=O)(=O)C2CC2)c2cnn([C@H](CC3CCOCC3)C(=O)Nc3ncc(F)s3)c2c1 [Compound 129, (R)-2-(4-(cyclopropylsulfonyl)-6-methoxy-1H-indazol-1-yl)-N-(5-fluorothiazol-2-yl)-3-(tetrahydro-2H-pyran-4-yl)propanamide] | 4.90 to 5.40 |  | ≤ 90% | 
